PubChem BioAssay AID248 (DTP/NCI, 2004)
Values joined by “and” are separate entries in the source; they are usually repeats but may differ in a detail not shown here. Identical values can stand only once. Toxic doses and inconclusive results are not listed.

Test system: L1210 leukemia ip in BDF1 mice, survival T/C
Test: NCI In Vivo Anticancer Drug Screen. Data for tumor model L1210 Leukemia (intraperitoneal) in B6D2F1 (BDF1) mice
Conditions: endpoint: mean survival time, higher = longer survival
Procedure, shortened: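 Mice bearing the transplanted tumor received compound or vehicle. Survival of the treated group was divided by that of the vehicle-treated control group to give the ratio.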

[1] = dose: 6.25 mg/kg/injection, schedule: Q01DX009 (ip), vehicle: saline with Tween-80
[2] = dose: 50.0 mg/kg/injection, schedule: Q04DX003 (ip), vehicle: saline with Tween-80
[3] = dose: 100.0 mg/kg/injection, schedule: Q01DX009 (ip), vehicle: saline with Tween-80
[4] = dose: 100.0 mg/kg/injection, schedule: Q04DX003 (ip), vehicle: saline with Tween-80
[5] = dose: 200.0 mg/kg/injection, schedule: Q01DX009 (ip), vehicle: saline with Tween-80
[6] = dose: 200.0 mg/kg/injection, schedule: Q04DX003 (ip), vehicle: saline with Tween-80
[7] = dose: 400.0 mg/kg/injection, schedule: Q04DX003 (ip), vehicle: saline with Tween-80
[8] = dose: 12.5 mg/kg/injection, schedule: Q01DX009 (ip), vehicle: saline
[9] = dose: 25.0 mg/kg/injection, schedule: Q01DX009 (ip), vehicle: saline
[10] = dose: 50.0 mg/kg/injection, schedule: Q01DX009 (ip), vehicle: saline
[11] = dose: 100.0 mg/kg/injection, schedule: Q04DX003 (ip), vehicle: saline
[12] = dose: 100.0 mg/kg/injection, schedule: Q01DX001 (ip), vehicle: Klucel (hydroxypropylcellulose) (HPC)
[13] = dose: 200.0 mg/kg/injection, schedule: Q01DX001 (ip), vehicle: Klucel (hydroxypropylcellulose) (HPC)
[14] = dose: 400.0 mg/kg/injection, schedule: Q01DX001 (ip), vehicle: Klucel (hydroxypropylcellulose) (HPC)
[15] = dose: 100.0 mg/kg/injection, schedule: Q01DX009 (ip), vehicle: Klucel (hydroxypropylcellulose) (HPC)
[16] = dose: 100.0 mg/kg/injection, schedule: Q04DX003 (ip), vehicle: Klucel (hydroxypropylcellulose) (HPC)
[17] = dose: 200.0 mg/kg/injection, schedule: Q01DX009 (ip), vehicle: Klucel (hydroxypropylcellulose) (HPC)
[18] = dose: 200.0 mg/kg/injection, schedule: Q04DX003 (ip), vehicle: Klucel (hydroxypropylcellulose) (HPC)
[19] = dose: 400.0 mg/kg/injection, schedule: Q01DX009 (ip), vehicle: Klucel (hydroxypropylcellulose) (HPC)
[20] = dose: 400.0 mg/kg/injection, schedule: Q04DX003 (ip), vehicle: Klucel (hydroxypropylcellulose) (HPC)
[21] = dose: 100.0 mg/kg/injection, schedule: Q01DX001 (ip), vehicle: saline
[22] = dose: 200.0 mg/kg/injection, schedule: Q01DX001 (ip), vehicle: saline
[23] = dose: 400.0 mg/kg/injection, schedule: Q01DX001 (ip), vehicle: saline

## N#CS/C=C\C(=O)O
dose: 3.12 mg/kg/injection, schedule: Q01DX001 (ip), vehicle: saline with Tween-80
  T/C: 95 % of control and 101 % of control
dose: 3.12 mg/kg/injection, schedule: Q01DX009 (ip), vehicle: saline with Tween-80
  T/C: 93 % of control
dose: 3.12 mg/kg/injection, schedule: Q04DX003 (ip), vehicle: saline with Tween-80
  T/C: 107 % of control
dose: 6.25 mg/kg/injection, schedule: Q01DX001 (ip), vehicle: saline with Tween-80
  T/C: 95 % of control and 101 % of control
[1]
  T/C: 98 % of control and 102 % of control
dose: 6.25 mg/kg/injection, schedule: Q04DX003 (ip), vehicle: saline with Tween-80
  T/C: 96 % of control and 100 % of control
dose: 12.5 mg/kg/injection, schedule: Q01DX001 (ip), vehicle: saline with Tween-80
  T/C: 94 % of control and 103 % of control and 105 % of control
dose: 12.5 mg/kg/injection, schedule: Q01DX009 (ip), vehicle: saline with Tween-80
  T/C: 95 % of control and 102 % of control
dose: 12.5 mg/kg/injection, schedule: Q04DX003 (ip), vehicle: saline with Tween-80
  T/C: 102 % of control and 103 % of control
dose: 25.0 mg/kg/injection, schedule: Q01DX001 (ip), vehicle: saline with Tween-80
  T/C: 94 % of control and 103 % of control
dose: 25.0 mg/kg/injection, schedule: Q01DX009 (ip), vehicle: saline with Tween-80
  T/C: 100 % of control and 92 % of control
dose: 25.0 mg/kg/injection, schedule: Q04DX003 (ip), vehicle: saline with Tween-80
  T/C: 93 % of control and 98 % of control
dose: 50.0 mg/kg/injection, schedule: Q01DX001 (ip), vehicle: saline with Tween-80
  T/C: 100 % of control
[2]
  T/C: 97 % of control

## COc1ccc(C2(C(=O)O)CCCC2)cc1
[3]
  T/C: 102 % of control
[4]
  T/C: 103 % of control
[5]
  T/C: 96 % of control
[6]
  T/C: 108 % of control
[7]
  T/C: 97 % of control

## CCNCCCCCCNCC
[8]
  T/C: 97 % of control
[9]
  T/C: 108 % of control
dose: 25.0 mg/kg/injection, schedule: Q04DX003 (ip), vehicle: saline
  T/C: 98 % of control
[10]
  T/C: 93 % of control
dose: 50.0 mg/kg/injection, schedule: Q04DX003 (ip), vehicle: saline
  T/C: 107 % of control
[11]
  T/C: 87 % of control

## COc1ccc2nccc(/C=C/CC3CCN(C(C)=O)CC3)c2c1
[8]
  T/C: 98 % of control
dose: 12.5 mg/kg/injection, schedule: Q04DX003 (ip), vehicle: Klucel (hydroxypropylcellulose) (HPC)
  T/C: 103 % of control
[9]
  T/C: 96 % of control
dose: 25.0 mg/kg/injection, schedule: Q04DX003 (ip), vehicle: Klucel (hydroxypropylcellulose) (HPC)
  T/C: 107 % of control
[10]
  T/C: 101 % of control
dose: 50.0 mg/kg/injection, schedule: Q04DX003 (ip), vehicle: Klucel (hydroxypropylcellulose) (HPC)
  T/C: 103 % of control
[11]
  T/C: 102 % of control

## CC(C)(CBr)COC(=O)Nc1ccc2ccccc2c1
dose: 50.0 mg/kg/injection, schedule: Q01DX009 (ip), vehicle: saline with Tween-80
  T/C: 95 % of control
[3]
  T/C: 95 % of control
[5]
  T/C: 88 % of control

## CCCCCCCCCCCCOP(=S)(S)OCCCCCCCCCCCC.[Cd]
dose: 1.56 mg/kg/injection, schedule: Q01DX009 (ip), vehicle: saline with Tween-80
  T/C: 102 % of control
dose: 3.13 mg/kg/injection, schedule: Q01DX009 (ip), vehicle: saline with Tween-80
  T/C: 97 % of control
[1]
  T/C: 96 % of control
dose: 50.0 mg/kg/injection, schedule: Q04DX002 (ip), vehicle: saline with Tween-80
  T/C: 94 % of control
dose: 100.0 mg/kg/injection, schedule: Q04DX002 (ip), vehicle: saline with Tween-80
  T/C: 86 % of control and 91 % of control

## CC[N+](C)(CC)CCC[n+]1c(-c2ccccc2)c2cc(N)ccc2c2ccc(N)cc21
dose: 1.56 mg/kg/injection, schedule: Q01DX009 (ip), vehicle: saline
  T/C: 104 % of control
dose: 1.56 mg/kg/injection, schedule: Q04DX003 (ip), vehicle: saline
  T/C: 100 % of control
dose: 3.12 mg/kg/injection, schedule: Q01DX009 (ip), vehicle: saline
  T/C: 109 % of control and 110 % of control
dose: 3.12 mg/kg/injection, schedule: Q04DX003 (ip), vehicle: saline
  T/C: 109 % of control
dose: 6.25 mg/kg/injection, schedule: Q01DX009 (ip), vehicle: saline
  T/C: 100 % of control and 110 % of control
dose: 6.25 mg/kg/injection, schedule: Q04DX003 (ip), vehicle: saline
  T/C: 112 % of control
dose: 6.25 mg/kg/injection, schedule: Q04DX003 (ip), vehicle: water
  T/C: 98 % of control
dose: 12.5 mg/kg/injection, schedule: Q04DX003 (ip), vehicle: water
  T/C: 93 % of control

## Nc1ccc2c3c(cccc13)C(=O)OC2=O
[12]
  T/C: 91 % of control
dose: 100.0 mg/kg/injection, schedule: Q01DX009 (ip), vehicle: saline
  T/C: 92 % of control
[13]
  T/C: 94 % of control
dose: 200.0 mg/kg/injection, schedule: Q01DX009 (ip), vehicle: saline
  T/C: 95 % of control
[14]
  T/C: 94 % of control
dose: 400.0 mg/kg/injection, schedule: Q01DX009 (ip), vehicle: saline
  T/C: 90 % of control

## CN(Cc1cnc2nc(NCNC(=O)C3=C(O)[C@@]4(O)C(=O)C5=C(O)c6c(O)cccc6[C@@](C)(O)[C@H]5C[C@H]4[C@H](N(C)C)C3=O)nc(N)c2n1)c1ccc(C(=O)NC(CCC(=O)O)C(=O)O)cc1 (stereo partly drawn)
dose: 1.5 mg/kg/injection, schedule: Q01DX015 (ip), vehicle: saline
  T/C: 213 % of control
dose: 3.0 mg/kg/injection, schedule: Q01DX015 (ip), vehicle: saline
  T/C: 219 % of control
dose: 6.0 mg/kg/injection, schedule: Q01DX015 (ip), vehicle: saline
  T/C: 163 % of control
dose: 12.0 mg/kg/injection, schedule: Q01DX015 (ip), vehicle: saline
  T/C: 107 % of control
dose: 24.0 mg/kg/injection, schedule: Q01DX015 (ip), vehicle: saline
  T/C: 87 % of control

## Cc1cccc(NC(=O)c2ccc(Cl)cc2Cl)c1C
[15]
  T/C: 102 % of control
[16]
  T/C: 101 % of control
[17]
  T/C: 91 % of control
[18]
  T/C: 90 % of control
[19]
  T/C: 91 % of control
[20]
  T/C: 93 % of control

## Nc1nc(SCc2ccc([N+](=O)[O-])cc2)c2nc(SCc3ccc([N+](=O)[O-])cc3)n(C3OC(CO)C(O)C3O)c2n1 (stereo not drawn)
dose: 50.0 mg/kg/injection, schedule: Q01DX005 (ip), vehicle: saline
  T/C: 102 % of control
dose: 100.0 mg/kg/injection, schedule: Q01DX005 (ip), vehicle: saline
  T/C: 118 % of control
dose: 200.0 mg/kg/injection, schedule: Q01DX005 (ip), vehicle: saline
  T/C: 115 % of control

## NC1CCC(CC(=O)O)CC1 (stereo not drawn)
[21]
  T/C: 105 % of control
[22]
  T/C: 89 % of control
[23]
  T/C: 96 % of control

## CN1NCc2cncnc21
dose: 50.0 mg/kg/injection, schedule: Q01DX001 (ip), vehicle: saline
  T/C: 97 % of control
[21]
  T/C: 103 % of control
[22]
  T/C: 101 % of control
[23]
  T/C: 103 % of control

## CCCCCCCCc1c(N)nc(N)[nH]c1=O
[12]
  T/C: 99 % of control
[13]
  T/C: 92 % of control
[14]
  T/C: 92 % of control

## CCOC1c2ccccc2-c2ccccc2N1C(=O)c1ccccc1 (stereo not drawn)
[2]
  T/C: 98 % of control
[4]
  T/C: 106 % of control
[6]
  T/C: 97 % of control and 109 % of control
[7]
  T/C: 103 % of control

## O=[N+]([O-])c1c(Br)ncn1Cc1ccccc1
dose: 100.0 mg/kg/injection, schedule: Q04DX003 (ip), vehicle: acetone
  T/C: 99 % of control
dose: 200.0 mg/kg/injection, schedule: Q04DX003 (ip), vehicle: acetone
  T/C: 96 % of control

## O=C1c2ccccc2C(=O)N1CCc1ccccc1
[15]
  T/C: 93 % of control
[16]
  T/C: 97 % of control and 101 % of control
[17]
  T/C: 96 % of control
[18]
  T/C: 94 % of control and 97 % of control
[19]
  T/C: 95 % of control
[20]
  T/C: 94 % of control and 101 % of control

## C(=C\c1nc2ccccc2s1)/c1ccccc1
[11]
  T/C: 103 % of control
dose: 200.0 mg/kg/injection, schedule: Q04DX003 (ip), vehicle: saline
  T/C: 93 % of control
dose: 400.0 mg/kg/injection, schedule: Q04DX003 (ip), vehicle: saline
  T/C: 104 % of control
